Laboratory results published in ChEMBL document CHEMBL5346961, “Discovery and Evaluation of 3-Quinoxalin Urea Derivatives as Potent, Selective, and Orally Available ATM Inhibitors Combined with Chemotherapy for the Treatment of Cancer via Goal-Oriented Molecule Generation and Virtual Screening” (J Med Chem, 2023).
Activity calls are given as the source filed them. The calls are words filed in the database; no cut-off is given here.

Experiments:
[1] = system: HCT-116; assay: Induction of apoptosis in human HCT-116 cells assessed as late apoptotic cells at 1 uM measured after 2 days in presence of irinotecan by AnnexinV-FITC/PI staining based analysis (reference value: 12.2%); type: functional; details: time 2 day
[2] = system: HCT-116; assay: Induction of cell cycle arrest in human HCT-116 cells at 1 to 4 uM measured after 48 hrs by propidium iodide staining based flow cytometry analysis; type: functional; details: dose 1-4 µM
[3] = Clearance in Balb/C mouse at 10 mg/kg,iv measured upto 48 hrs by LC-MS/MS analysis; type: ADME, organism-based; details: in vivo
[4] = Efflux ratio of apparent permeability in human Caco-2 cells; type: ADME, cell-based
[5] = system: HCT-116; assay: Induction of apoptosis in human HCT-116 cells assessed as necrotic cells at 2 uM measured after 2 days in presence of irinotecan by AnnexinV-FITC/PI staining based analysis (reference value: 0.64%); type: functional; details: time 2 day
[6] = system: HCT-116; assay: Antiproliferative activity against human HCT-116 cells assessed as reduction in cell viability incubated for 6 days by MTT assay; type: functional, cell-based; details: HCT-116, 144 h
[7] = system: SW-620; assay: Synergistic inhibition of colony formation in human SW620 cells assessed as fold increase in irinotecan IC50 at 200 nM preincubated for 1 hr followed by irinotecan addition and measured after 1 week by crystal violet staining based […] assay; type: functional; details: time 169 hrs
[8] = system: HCT-116; assay: Induction of apoptosis in human HCT-116 cells assessed as late apoptotic cells at 2 uM measured after 2 days in presence of irinotecan by AnnexinV-FITC/PI staining based analysis (reference value: 12.2%); type: functional; details: time 2 day
[9] = system: HCT-116; assay: Induction of apoptosis in human HCT-116 cells assessed as late apoptotic cells at 4 uM measured after 2 days in presence of irinotecan by AnnexinV-FITC/PI staining based analysis (reference value: 12.2%); type: functional; details: time 2 day
[10] = system: HCT-116; assay: Induction of apoptosis in human HCT-116 cells assessed as viable cells at 1 uM measured after 2 days by AnnexinV-FITC/PI staining based analysis (reference value: 72.8%); type: functional; details: HCT-116, 48 h, time 2 day, read-out: Activity
[11] = system: HCT-116; assay: Induction of apoptosis in human HCT-116 cells assessed as early apoptotic cells at 2 uM measured after 2 days by AnnexinV-FITC/PI staining based analysis (reference value: 14.4%); type: functional; details: time 2 day
[12] = system: HCT-116; assay: Inhibition of colony formation in human HCT-116 cells preincubated for 1 hr followed by exposure to 2 Gy gamma irradiation and measured after 1 week by crystal violet staining based […] assay; type: functional, cell-based; details: HCT-116, light or radiation study
[13] = system: HCT-116; assay: Induction of apoptosis in human HCT-116 cells assessed as viable cells at 4 uM measured after 2 days in presence of irinotecan by AnnexinV-FITC/PI staining based analysis (reference value: 72.8%); type: functional; details: HCT-116, 48 h, time 2 day, read-out: Activity
[14] = Half life in Balb/C mouse at 10 mg/kg,po measured upto 48 hrs by LC-MS/MS analysis; type: ADME, organism-based; details: in vivo
[15] = Tmax in Balb/C mouse at 10 mg/kg,iv measured upto 48 hrs by LC-MS/MS analysis; type: ADME, organism-based; details: in vivo
[16] = Cmax in Balb/C mouse at 10 mg/kg,po measured upto 48 hrs by LC-MS/MS analysis; type: ADME, organism-based; set-up: dose 10 mg/kg, time < 48 hrs, route po; details: in vivo
[17] = system: MCF7; assay: Antiproliferative activity against human MCF7 cells assessed as reduction in cell viability incubated for 6 days by MTT assay; type: functional, cell-based; details: MCF7, 144 h
[18] = system: HCT-116; assay: Induction of cell cycle arrest in human HCT-116 cells assessed as increase in accumulation of cells at G2/M phase at 1 to 4 uM measured after 48 hrs in presence of irinotecan by propidium iodide staining based flow cytometry analysis; type: functional; details: dose 1-4 µM
[19] = system: HCT-116; assay: Induction of apoptosis in human HCT-116 cells assessed as early apoptotic cells at 1 uM measured after 2 days by AnnexinV-FITC/PI staining based analysis (reference value: 14.4%); type: functional; details: time 2 day
[20] = system: MCF7; assay: Synergistic antiproliferative activity against human MCF7 cells assessed as combination index at […] measured after 6 days in presence irinotecan by MTT assay; type: functional; details: dose lower 100 µM; time 6 day
[21] = system: MCF7; assay: Synergistic antiproliferative activity against human MCF7 cells assessed as combination index at […] measured after 6 days in presence etoposide by MTT assay; type: functional; details: dose lower 100 µM; time 6 day
[22] = system: HCT-116; assay: Induction of apoptosis in human HCT-116 cells assessed as early apoptotic cells at 4 uM measured after 2 days by AnnexinV-FITC/PI staining based analysis (reference value: 14.4%); type: functional; details: time 2 day
[23] = system: HCT-116; assay: Induction of DNA damage in human HCT-116 cells assessed as decrease in gammaH2AX fluorescence intensity measured after 6 hrs in presence of irinotecan by fluorescence microscopic analysis; type: functional, cell-based; details: dose 0.5-2 µM
[24] = Toxicity in BALB/c nude mouse assessed as reduction in body weight at 20 to 40 mg/kg, po administered once daily for 3 days weekly after irinotecan post treatment for 21 days in presence of irinotecan relative to control; type: organism-based; set-up: scale not given: the % may be the effect or the level left; details: in vivo, 504 h, dose 20-40 mg/kg, time 21 day
[25] = Cmax in Balb/C mouse at 10 mg/kg,iv measured upto 48 hrs by LC-MS/MS analysis; type: ADME, organism-based; set-up: time < 48 hrs, dose 10 mg/kg, route iv; details: in vivo
[26] = system: HCT-116; assay: Induction of apoptosis in human HCT-116 cells assessed as viable cells at 2 uM measured after 2 days by AnnexinV-FITC/PI staining based analysis (reference value: 72.8%); type: functional; details: HCT-116, 48 h, time 2 day, read-out: Activity
[27] = Tmax in Balb/C mouse at 10 mg/kg,po measured upto 48 hrs by LC-MS/MS analysis; type: ADME, organism-based; details: in vivo
[28] = Half life in Balb/C mouse at 10 mg/kg,iv measured upto 48 hrs by LC-MS/MS analysis; type: ADME, organism-based; details: in vivo
[29] = system: HCT-116; assay: Induction of apoptosis in human HCT-116 cells assessed as necrotic cells at 2 uM measured after 2 days by AnnexinV-FITC/PI staining based analysis (reference value: 0.64%); type: functional; details: time 2 day
[30] = system: HCT-116; assay: Induction of apoptosis in human HCT-116 cells assessed as late apoptotic cells at 4 uM measured after 2 days by AnnexinV-FITC/PI staining based analysis (reference value: 12.2%); type: functional; details: time 2 day
[31] = target: Serine-protein kinase ATM (Homo sapiens, UniProt Q13315); assay: Inhibition of ATM (unknown origin) assessed as remaining activity at 0.01 uM preincubated with compound for 30 mins followed by substrate addition and measured after 2 hrs by HTRF method relative to control; details: time 2.5 hrs
[32] = target: DNA-dependent protein kinase catalytic subunit (Homo sapiens, UniProt P78527); assay: Inhibition of DNA-PK (unknown origin) in presence of [gamma33P-ATP] by scintillation counting method
[33] = AUC (0 to t) in Balb/C mouse at 10 mg/kg,po measured upto 48 hrs by LC-MS/MS analysis; type: ADME, organism-based; set-up: dose 10 mg/kg, time < 48 hrs, route po; details: in vivo
[34] = system: HCT-116; assay: Antiproliferative activity against human HCT-116 cells assessed as cell survival at 1 uM incubated for 6 days by MTT assay relative to control; type: functional; details: HCT-116, 144 h, time 6 day, read-out: Survival
[35] = system: SW-620; assay: Antiproliferative activity against human SW620 cells assessed as reduction in cell viability incubated for 6 days by MTT assay; type: functional, cell-based; details: SW-620, 144 h

DNA-dependent protein kinase catalytic subunit, sequence (P78527 whole entry): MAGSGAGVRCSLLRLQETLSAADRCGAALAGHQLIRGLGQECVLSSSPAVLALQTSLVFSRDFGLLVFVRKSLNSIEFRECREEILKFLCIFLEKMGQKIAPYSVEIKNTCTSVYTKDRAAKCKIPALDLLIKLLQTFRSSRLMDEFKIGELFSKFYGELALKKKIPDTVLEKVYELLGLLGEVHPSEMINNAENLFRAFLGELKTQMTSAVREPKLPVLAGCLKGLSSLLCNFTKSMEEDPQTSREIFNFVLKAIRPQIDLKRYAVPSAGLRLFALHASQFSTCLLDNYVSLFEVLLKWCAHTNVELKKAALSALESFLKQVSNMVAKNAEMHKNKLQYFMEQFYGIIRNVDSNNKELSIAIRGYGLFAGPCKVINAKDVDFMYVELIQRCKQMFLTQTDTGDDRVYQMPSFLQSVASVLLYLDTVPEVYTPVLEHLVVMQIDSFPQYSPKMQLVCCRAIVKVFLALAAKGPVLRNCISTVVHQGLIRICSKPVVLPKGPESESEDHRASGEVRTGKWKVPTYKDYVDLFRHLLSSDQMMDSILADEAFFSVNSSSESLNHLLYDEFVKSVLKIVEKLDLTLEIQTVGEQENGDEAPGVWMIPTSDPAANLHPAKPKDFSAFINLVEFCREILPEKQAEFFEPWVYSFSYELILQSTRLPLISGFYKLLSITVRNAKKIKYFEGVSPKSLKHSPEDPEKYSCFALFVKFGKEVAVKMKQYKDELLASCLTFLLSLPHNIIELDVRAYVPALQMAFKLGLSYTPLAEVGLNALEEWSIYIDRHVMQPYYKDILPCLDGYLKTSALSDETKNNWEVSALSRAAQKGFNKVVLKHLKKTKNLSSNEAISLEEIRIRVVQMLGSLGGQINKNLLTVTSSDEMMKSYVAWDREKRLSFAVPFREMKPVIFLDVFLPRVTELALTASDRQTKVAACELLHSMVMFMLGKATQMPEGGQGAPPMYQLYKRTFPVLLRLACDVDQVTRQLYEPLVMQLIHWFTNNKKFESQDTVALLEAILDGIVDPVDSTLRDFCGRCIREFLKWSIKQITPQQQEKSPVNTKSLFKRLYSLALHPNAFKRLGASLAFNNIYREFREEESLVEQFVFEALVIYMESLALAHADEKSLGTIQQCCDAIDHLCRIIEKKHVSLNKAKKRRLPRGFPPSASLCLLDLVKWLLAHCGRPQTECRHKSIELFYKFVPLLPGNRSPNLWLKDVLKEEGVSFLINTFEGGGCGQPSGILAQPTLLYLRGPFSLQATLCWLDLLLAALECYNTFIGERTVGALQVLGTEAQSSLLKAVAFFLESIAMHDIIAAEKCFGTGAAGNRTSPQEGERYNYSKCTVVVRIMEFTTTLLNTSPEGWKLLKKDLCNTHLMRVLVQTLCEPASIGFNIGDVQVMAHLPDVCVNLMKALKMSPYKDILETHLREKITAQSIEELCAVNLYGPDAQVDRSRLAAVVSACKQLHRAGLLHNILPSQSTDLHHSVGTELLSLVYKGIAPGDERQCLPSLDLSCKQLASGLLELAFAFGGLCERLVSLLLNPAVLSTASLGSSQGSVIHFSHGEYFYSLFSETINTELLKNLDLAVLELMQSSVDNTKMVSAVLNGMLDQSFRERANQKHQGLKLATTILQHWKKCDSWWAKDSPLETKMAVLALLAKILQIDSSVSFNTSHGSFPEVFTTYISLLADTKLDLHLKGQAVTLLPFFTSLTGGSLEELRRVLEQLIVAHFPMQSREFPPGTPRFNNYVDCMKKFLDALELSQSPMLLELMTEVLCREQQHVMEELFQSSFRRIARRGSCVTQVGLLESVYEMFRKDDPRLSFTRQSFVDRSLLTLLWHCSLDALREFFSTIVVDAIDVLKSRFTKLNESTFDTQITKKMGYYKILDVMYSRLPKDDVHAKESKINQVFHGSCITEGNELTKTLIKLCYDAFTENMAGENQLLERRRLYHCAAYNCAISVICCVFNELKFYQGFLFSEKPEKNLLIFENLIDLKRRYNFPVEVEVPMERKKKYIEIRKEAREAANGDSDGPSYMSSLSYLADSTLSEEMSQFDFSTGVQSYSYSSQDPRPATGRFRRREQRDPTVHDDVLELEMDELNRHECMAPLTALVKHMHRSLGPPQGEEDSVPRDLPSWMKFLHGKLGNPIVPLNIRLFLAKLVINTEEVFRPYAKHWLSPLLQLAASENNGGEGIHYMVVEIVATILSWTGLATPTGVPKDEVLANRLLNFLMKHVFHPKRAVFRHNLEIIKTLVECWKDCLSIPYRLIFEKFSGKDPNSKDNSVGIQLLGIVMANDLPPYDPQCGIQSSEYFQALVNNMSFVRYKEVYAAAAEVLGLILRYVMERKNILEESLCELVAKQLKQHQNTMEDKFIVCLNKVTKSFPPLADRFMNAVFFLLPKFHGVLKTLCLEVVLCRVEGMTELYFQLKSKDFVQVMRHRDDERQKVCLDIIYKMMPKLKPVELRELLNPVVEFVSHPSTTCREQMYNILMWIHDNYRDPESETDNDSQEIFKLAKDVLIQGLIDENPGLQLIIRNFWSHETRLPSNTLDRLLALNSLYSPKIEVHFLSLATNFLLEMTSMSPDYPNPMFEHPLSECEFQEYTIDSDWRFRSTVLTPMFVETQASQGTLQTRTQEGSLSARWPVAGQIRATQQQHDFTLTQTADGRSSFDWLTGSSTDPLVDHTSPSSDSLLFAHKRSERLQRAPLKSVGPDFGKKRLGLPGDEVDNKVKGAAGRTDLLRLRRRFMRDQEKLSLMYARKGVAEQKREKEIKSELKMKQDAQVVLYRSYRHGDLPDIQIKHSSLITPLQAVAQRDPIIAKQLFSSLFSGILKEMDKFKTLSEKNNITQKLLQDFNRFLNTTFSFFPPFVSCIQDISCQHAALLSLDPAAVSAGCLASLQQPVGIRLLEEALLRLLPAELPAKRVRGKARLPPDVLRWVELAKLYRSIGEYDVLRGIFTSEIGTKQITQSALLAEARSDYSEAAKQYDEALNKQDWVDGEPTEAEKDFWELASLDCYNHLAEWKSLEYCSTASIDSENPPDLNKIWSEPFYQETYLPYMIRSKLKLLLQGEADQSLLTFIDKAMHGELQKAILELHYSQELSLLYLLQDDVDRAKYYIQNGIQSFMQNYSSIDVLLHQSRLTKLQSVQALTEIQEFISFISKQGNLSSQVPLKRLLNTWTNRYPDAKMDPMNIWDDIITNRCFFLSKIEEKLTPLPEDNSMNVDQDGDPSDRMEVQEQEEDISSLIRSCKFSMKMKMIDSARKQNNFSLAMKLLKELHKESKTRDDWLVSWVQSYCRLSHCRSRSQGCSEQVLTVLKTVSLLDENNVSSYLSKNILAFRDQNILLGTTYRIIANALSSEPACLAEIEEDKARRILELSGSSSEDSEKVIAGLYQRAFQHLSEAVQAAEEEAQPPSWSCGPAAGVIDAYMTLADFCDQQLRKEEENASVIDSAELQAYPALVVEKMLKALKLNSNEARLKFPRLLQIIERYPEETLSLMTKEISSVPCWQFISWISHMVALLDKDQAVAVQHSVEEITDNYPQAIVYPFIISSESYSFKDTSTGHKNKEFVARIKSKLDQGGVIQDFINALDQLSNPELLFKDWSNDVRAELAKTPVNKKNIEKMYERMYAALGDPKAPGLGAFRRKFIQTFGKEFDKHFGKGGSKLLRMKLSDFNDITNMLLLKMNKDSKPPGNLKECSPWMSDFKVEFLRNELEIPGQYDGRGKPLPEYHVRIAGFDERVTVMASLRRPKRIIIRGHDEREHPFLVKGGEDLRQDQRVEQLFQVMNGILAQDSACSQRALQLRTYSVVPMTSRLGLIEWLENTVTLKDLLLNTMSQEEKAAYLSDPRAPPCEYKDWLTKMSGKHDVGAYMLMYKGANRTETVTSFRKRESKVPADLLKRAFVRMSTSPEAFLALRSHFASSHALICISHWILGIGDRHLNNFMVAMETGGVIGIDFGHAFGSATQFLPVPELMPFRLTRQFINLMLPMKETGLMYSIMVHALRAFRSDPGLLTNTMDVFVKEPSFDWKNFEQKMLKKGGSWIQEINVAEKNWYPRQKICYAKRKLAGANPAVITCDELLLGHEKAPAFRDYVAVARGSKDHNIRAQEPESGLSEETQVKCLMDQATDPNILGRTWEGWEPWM

CC(C)NC(=O)N(C)c1cnc2ccc(-c3ccc(OCCCN4CCCCC4)nc3)cc2n1
Activity [1]: 30.4%
Activity [2]: inactive
clearance [3]: 13 mL/min/kg
efflux ratio [4]: 2.37
Activity [5]: 1.67%
IC50 [6]: > 9 µM
fold change (FC) [7]: 11.5
Activity [8]: 33.1%
Activity [9]: 35.2%
viability at 1 µM [10]: 68%
Activity [11]: 17.6%
IC50 [12]: 1.69 nM
viability at 4 µM [13]: 7.37%
t1/2 [14]: 3.37 h
Tmax [15]: 4.8 min
Cmax [16]: 10200 ng/mL
IC50 [17]: > 9 µM
Activity [18]: Active
Activity [19]: 18.3%
CI [20]: <1
CI [21]: <1
Activity [22]: 18.1%
Activity [23]: Active
Activity [24]: < 12%
Cmax [25]: 6790 ng/mL
viability at 2 µM [26]: 67.3%
Tmax [27]: 19.8 min
t1/2 [28]: 5.29 h
Activity [29]: 0.92%
Activity [30]: 13%
Activity [31]: 2%
IC50 [32]: 420 nM
AUCt [33]: 13.95223 µg·h/mL
viability at 1 µM [34]: > 83%
IC50 [35]: > 9 µM
